ChEMBL document CHEMBL4184264, “Heterobicyclic inhibitors of transforming growth factor beta receptor I (TGFβRI)” (Bioorg Med Chem, 2018)

Key:
[1] = Metabolic stability in human liver microsomes assessed as compound remaining by LC-MS/MS analysis; assay type: ADME, microsome
[2] = Metabolic stability in rat liver microsomes assessed as compound remaining by LC-MS/MS analysis; assay type: ADME, microsome
[3] = Metabolic stability in mouse liver microsomes assessed as compound remaining by LC-MS/MS analysis; assay type: ADME, microsome
[4] = Inhibition of TGFbetaR1 in mink Mv1Lu cells assessed as TGFbeta-stimulated PSMAD2 phosphorylation preincubated for 1 hr followed by TGFbeta addition measured after 15 mins; assay type: cell-based, Neovison vison; settings: Neogale vison
TGF-beta receptor type-2 = TGF-beta receptor type-2 (Homo sapiens, UniProt P37173); test: Inhibition of wild type His-tagged TGFbetaR2 (unknown origin) after 1 hr by HTRF assay
Sequence of TGF-beta receptor type-2 (P37173 whole entry): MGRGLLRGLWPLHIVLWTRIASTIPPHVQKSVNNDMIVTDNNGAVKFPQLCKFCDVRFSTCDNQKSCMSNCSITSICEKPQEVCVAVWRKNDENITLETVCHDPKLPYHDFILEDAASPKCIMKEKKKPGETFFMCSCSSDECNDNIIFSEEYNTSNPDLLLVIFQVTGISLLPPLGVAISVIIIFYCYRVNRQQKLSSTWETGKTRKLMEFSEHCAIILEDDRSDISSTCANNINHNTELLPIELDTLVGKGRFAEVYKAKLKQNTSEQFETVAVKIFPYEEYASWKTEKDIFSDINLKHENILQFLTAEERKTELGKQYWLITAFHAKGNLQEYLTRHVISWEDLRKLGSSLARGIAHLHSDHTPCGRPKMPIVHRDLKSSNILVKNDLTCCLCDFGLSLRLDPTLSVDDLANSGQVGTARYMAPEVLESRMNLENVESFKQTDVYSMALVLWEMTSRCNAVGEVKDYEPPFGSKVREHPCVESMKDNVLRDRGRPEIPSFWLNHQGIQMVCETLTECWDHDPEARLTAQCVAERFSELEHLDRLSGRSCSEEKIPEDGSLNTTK

Mus musculus = test: In vivo inhibition of TGFbetaR1 in po dosed BALB/c mouse implanted with mouse 4T1 cells assessed as reduction in phosphorylated PSMAD levels after 7 hrs; assay type: functional, organism-based
[5] = Solubility of the compound in DMSO; assay type: physicochemical

Stability [1] [%]	Stability [2] [%]	Stability [3] [%]	IC50 [4] [nM]	IC50 (TGF-beta receptor type-2) [nM]	solubility [5]	SMILES	Activity (Mus musculus)
33	33	1	350	–	–	c1ccc(-c2nc(Nc3ccncc3)c3cccn3n2)nc1	–
81	80	27	43	–	–	CC(=O)Nc1cc(Nc2nc(-c3cccc(C(F)(F)F)n3)nc3[nH]ccc23)ccn1	–
85	90	82	390	–	–	N[C@H]1CCN(Cc2ccn3nc(-c4ccccn4)nc(Nc4ccncc4F)c23)C[C@@H]1O	–
58	46	36	750	190	–	c1ccc(-c2nn3c(c2-c2ccnc4cc(OCCN5CCOCC5)ccc24)CCC3)nc1	–
54	54	19	500	–	–	Fc1cnccc1Nc1nc(-c2ccccn2)nn2cccc12	–
86	72	48	76	–	–	N[C@H]1CC[C@@H](NCc2ccn3nc(-c4ccccn4)nc(Nc4ccncc4F)c23)CC1	–
78	68	66	–	–	–	CC(=O)Nc1cc(Nc2nc(-c3cccc(C(F)(F)F)n3)nn3cccc23)c(F)cn1	–
70	–	77	220	–	–	O=C(CN1CCN(CCO)CC1)Nc1cc(Nc2nc(-c3cccc(C(F)(F)F)n3)nn3cccc23)ccn1	–
11	35	6	180	–	–	Cc1cccc(-c2nc(Nc3ccncc3F)c3cccn3n2)n1	–
12	36	2	3900	–	–	COc1cccc(-c2nc(Nc3ccncc3)c3cccn3n2)n1	–
38	47	4	150	–	–	Cc1cccc(-c2nc(Nc3ccncc3F)c3nc[nH]c3n2)n1	–
–	–	–	–	1300	–	Cc1cccc(-c2nn3c(c2-c2ccnc4ccc(C(N)=O)cc24)CCC3)n1 [GALUNISERTIB]	–
15	39	7	1200	–	–	Cc1cccc(-c2nc(Nc3c(F)cncc3F)c3cccn3n2)n1	–
93	92	100	310	–	–	N[C@@H]1CCN(Cc2ccn3nc(-c4ccccn4)nc(Nc4ccncc4F)c23)C[C@H]1O	–
65	67	26	> 10000	–	–	Cc1cccc(-c2nc(Nc3ccncc3C(=O)NC(C)C)c3cccn3n2)n1	–
25	38	2	24	–	–	Cc1cccc(-c2nc(Nc3ccncc3F)c3cc[nH]c3n2)n1	–
85	77	59	130	–	–	CC(=O)Nc1cc(Nc2nc(-c3cccc(C(F)(F)F)n3)nc3[nH]cnc23)ccn1	–
75	35	49	180	–	–	CC(=O)Nc1cc(Nc2nc(-c3cccc(C(F)(F)F)n3)nn3cccc23)ccn1	Dose-dependent effect
24	48	13	710	–	–	FC(F)(F)c1cccc(-c2nc(Nc3ccncc3)c3cccn3n2)n1	–
11	28	1	99	–	Soluble	Cc1cccc(-c2nc(Nc3ccncc3)c3cccn3n2)n1	–
36	–	28	47	–	–	Fc1cnccc1Nc1nc(-c2cccc(C(F)(F)F)n2)nc2[nH]ccc12	–
–	–	–	–	–	Insoluble	Cc1cccc(-c2nc(Nc3ccnc4ccccc34)c3cccn3n2)n1	–
